Columns and labels:
Experiment in all cases: Antibacterial and antifungal activity, paper disc method
Format in all cases: cell-based
[1] = system: Aspergillus niger IFO-4407; details: IFO4407, paper disc d=8 mm dipped in 1,000 µg/ml solution, SDA medium, read-out: diameter of the growth inhibition circle, Asp.(IFO-4407)
Procedure: (§1) Antibacterial and antifungal activity tests for various bacteria and fungi were conducted. The tests were carried out by the conventional paper disc method. That is, a paper disc (d=8 mm) was dipped in aqueous or methanol solution of the compound of the present invention (concentration : 1,000 µg/ml), then dried and used.
(§2) As bacteria to be tested, • ① Staphylococcus aureus IFO-12732 [hereinafter abbreviated to Sta.] • ② Bacillus subtilis IFO-13719 [Bac.] • ③ Escherichia coli IFO-3301 [Esc.] were used. As yeast to be tested, • ④ Saccharomyces cerevisiae IFO-0210 [Sac.] • ⑤ Candida albicans IFO-0583 [Can.] were used. As fungi to be tested, • ⑥ Aspergillus niger IFO-4407 [Asp.] • ⑦ Penicillium citrinum IFO-7784 [Pen.] • ⑧ Tyromyces palustris IFO-30339 [Tyr.] • ⑨ Coriolus versicolor IFO-30340 [Cor.] were used. Among the above fungi, Tyr. and Cor. are wood rot fungi.
(§3) As the test media, agar media shown below were used. That is, TSA (Trypticase Soy Agar) medium was used for Sta., Bac. and Esc.; YNB (Yeast Nitrogen Base) agar medium was used for Sac. and Can.; SDA (Sabouraud Dextrose Agar) medium was used for Asp. and Pen.; and PDA (Potato Dextrose Agar) medium was used for Try. and Cor.
(§4) The determination of antibacterial and antifungal effectiveness was carried out by measuring the diameter of the growth inhibition circle generated on the circumference of the paper disc. The indication of effectiveness is given as follows: -: no growth inhibition circle was observed. +: diameter of the growth inhibition circle was 9 - 20 mm ++: diameter of the growth inhibition circle was 21 - 40 mm +++: diameter of the growth inhibition circle was 41 mm or more

[2] = system: Bacillus subtilis IFO-13719; details: paper disc d=8 mm dipped in 1,000 µg/ml solution, TSA medium; for zone of inhibition at 1000 µg/mL: Bacillus subtilis, IFO13719, read-out: diameter of the growth inhibition circle, Bac.(IFO-13719)
Procedure: as §1, §2, §3, §4

[3] = system: Candida albicans IFO-0583; details: IFO0583, paper disc d=8 mm dipped in 1,000 µg/ml solution, YNB agar medium, read-out: diameter of the growth inhibition circle, Can.(IFO-0583)
Procedure: as §1, §2, §3, §4

[4] = system: Coriolus versicolor IFO-30340; details: Trametes versicolor, IFO30340; paper disc d=8 mm dipped in 1,000 µg/ml solution; PDA medium; read-out: diameter of the growth inhibition circle, Cor.(IFO-30340)
Procedure: as §1, §2, §3, §4

[5] = system: Escherichia coli IFO-3301; details: paper disc d=8 mm dipped in 1,000 µg/ml solution, TSA medium; for zone of inhibition at 1000 µg/mL: Escherichia coli, IFO3301, read-out: diameter of the growth inhibition circle, Esc.(IFO-3301)
Procedure: as §1, §2, §3, §4

[6] = system: Penicillium citrinum IFO-7784; details: IFO7784, paper disc d=8 mm dipped in 1,000 µg/ml solution, SDA medium, read-out: diameter of the growth inhibition circle, Pen.(IFO-7784)
Procedure: as §1, §2, §3, §4

[7] = system: Saccharomyces cerevisiae IFO-0210; details: IFO0210, paper disc d=8 mm dipped in 1,000 µg/ml solution, YNB agar medium, read-out: diameter of the growth inhibition circle, Sac.(IFO-0210)
Procedure: as §1, §2, §3, §4

[8] = system: Staphylococcus aureus IFO-12732; details: IFO12732, paper disc d=8 mm dipped in 1,000 µg/ml solution, TSA medium, read-out: diameter of the growth inhibition circle, Sta.(IFO-12732)
Procedure: as §1, §2, §3, §4

[9] = system: Tyromyces palustris IFO-30339; details: paper disc d=8 mm dipped in 1,000 µg/ml solution; PDA medium; read-out: diameter of the growth inhibition circle, Tyr.(IFO-30339)
Procedure: as §1, §2, §3, §4

Structure (SMILES)	zone of inhibition at 1000 µg/mL [1]	zone of inhibition at 1000 µg/mL [2]	zone of inhibition at 1000 µg/mL [3]	zone of inhibition at 1000 µg/mL [4]	zone of inhibition at 1000 µg/mL [5]	zone of inhibition at 1000 µg/mL [6]	zone of inhibition at 1000 µg/mL [7]	zone of inhibition at 1000 µg/mL [8]	zone of inhibition at 1000 µg/mL [9]	diameter of the growth inhibition circle, Esc.(IFO-3301) [5]	diameter of the growth inhibition circle, Bac.(IFO-13719) [2]
CC(C)(C)NC(=O)C#CI [Example 1, N-(tert-Butyl)-3-iodopropiolamide]	21 to 40 mm	9 to 20 mm	21 to 40 mm	> 41 mm	9 to 20 mm	> 41 mm	21 to 40 mm	9 to 20 mm	> 41 mm		
CCCCCCCCCCNC(=O)C#CI [Example 2, N-(n-Decyl)-3-iodopropiolamide]	9 to 20 mm	9 to 20 mm	9 to 20 mm	21 to 40 mm		9 to 20 mm	9 to 20 mm	9 to 20 mm	9 to 20 mm	-	
CCCCNC(=O)C#CI [Example 4, N-(n-Butyl)-3-iodopropiolamide]	21 to 40 mm	9 to 20 mm	21 to 40 mm	> 41 mm	9 to 20 mm	> 41 mm	21 to 40 mm	21 to 40 mm	> 41 mm		
CCC(C)NC(=O)C#CI (stereo not drawn) [Example 5, N-(sec-Butyl)-3-iodopropiolamide]	21 to 40 mm	9 to 20 mm	21 to 40 mm	> 41 mm	9 to 20 mm	> 41 mm	21 to 40 mm	21 to 40 mm	> 41 mm		
CC(C)CNC(=O)C#CI [Example 6, N-Isobutyl-3-iodopropiolamide]	21 to 40 mm	21 to 40 mm	21 to 40 mm	21 to 40 mm		21 to 40 mm	21 to 40 mm	21 to 40 mm	> 41 mm	-	
CCCCCNC(=O)C#CI [Example 7, N-(n-Pentyl)-3-iodopropiolamide]	21 to 40 mm	9 to 20 mm	21 to 40 mm	> 41 mm	9 to 20 mm	> 41 mm	21 to 40 mm	21 to 40 mm	> 41 mm		
CCCCCCNC(=O)C#CI [Example 8, N-(n-Hexyl)-3-iodopropiolamide]	21 to 40 mm	9 to 20 mm	21 to 40 mm	> 41 mm	9 to 20 mm	> 41 mm	21 to 40 mm	21 to 40 mm	> 41 mm		
CCCCCCCNC(=O)C#CI [Example 9, N-(n-Heptyl)-3-iodopropiolamide]	21 to 40 mm	9 to 20 mm	21 to 40 mm	> 41 mm		> 41 mm	21 to 40 mm	9 to 20 mm	> 41 mm	-	
CCCCCCCCNC(=O)C#CI [Example 10, N-(n-Octyl)-3-iodopropiolamide]	9 to 20 mm		21 to 40 mm	> 41 mm		21 to 40 mm	21 to 40 mm	9 to 20 mm	21 to 40 mm	-	-
CCCCCCCCCNC(=O)C#CI [Example 11, N-(n-Nonyl)-3-iodopropiolamide]	9 to 20 mm		9 to 20 mm	> 41 mm		21 to 40 mm	9 to 20 mm	9 to 20 mm	21 to 40 mm	-	-
